Values after ≈ are worked out from the molar mass of the structure shown.
Tests used:
Escherichia coli [1] = test: Antimicrobial activity against TolC+ Escherichia coli 700 by CLSI method; format: functional; settings: Escherichia coli, 700; read-out: MIC
Escherichia coli [2] = test: Antimicrobial activity against TolC-deficient Escherichia coli by CLSI method; format: functional
Pseudomonas aeruginosa [3] = test: Antimicrobial activity against Pseudomonas aeruginosa PAO1 by CLSI method; format: functional; settings: Pseudomonas aeruginosa, PAO1; read-out: MIC
Klebsiella pneumoniae = test: Antimicrobial activity against Klebsiella pneumoniae 13882 by CLSI method; format: functional; settings: Klebsiella pneumoniae, 13882; read-out: MIC
Bacillus subtilis = test: Antimicrobial activity against Bacillus subtilis BD54 by CLSI method; format: functional; settings: Bacillus subtilis, BD54; read-out: MIC
Staphylococcus aureus = test: Antimicrobial activity against methicillin-resistant Staphylococcus aureus 1094 by CLSI method; format: functional; settings: Staphylococcus aureus, 1094; read-out: MIC
Enterococcus faecalis = test: Antimicrobial activity against vancomycin-resistant Enterococcus faecalis ATCC 51575 by CLSI method; format: functional; settings: Enterococcus faecalis, ATCC 51575; read-out: MIC
Bacillus anthracis = test: Antimicrobial activity against Bacillus anthracis Sterne by CLSI method; format: functional
[4] = Cytotoxicity against human HeLa cells by MTS assay; format: cell-based; settings: HeLa cells
Pseudomonas aeruginosa [5] = test: Antimicrobial activity against mexAB-oprM deficient Pseudomonas aeruginosa PAO1 harboring by CLSI method; format: functional
[6] = Escherichia coli, read-out: MIC
[7] = Bacillus anthracis, Sterne, read-out: MIC

| SMILES | MIC (Escherichia coli [1]) [µg/mL] | MIC (Escherichia coli [2]; [6]) [µg/mL] | MIC (Pseudomonas aeruginosa [3]) [µg/mL] | MIC (Klebsiella pneumoniae) [µg/mL] | MIC (Bacillus subtilis) [µg/mL] | MIC (Staphylococcus aureus) [µg/mL] | MIC (Enterococcus faecalis) [µg/mL] | MIC (Bacillus anthracis; [7]) [µg/mL] | CC50 [4] [µg/mL] | MIC (Pseudomonas aeruginosa [5]) [µg/mL] | MIC (Escherichia coli [2]) [µg/mL] | MIC (Bacillus anthracis) [µg/mL] |
| --- | --- | --- | --- | --- | --- | --- | --- | --- | --- | --- | --- | --- |
| COC1CN=C(c2ccc3cc(-c4ccc(-c5cc6ccc(C7=NCC(OC)CN7)cc6o5)cc4)[nH]c3c2)NC1 (configuration not stated) | 2.5 (≈ 4.68 µM) | 0.24 (≈ 0.45 µM) | > 80 | 1.25 (≈ 2.34 µM) | 0.08 (≈ 0.15 µM) | 0.31 (≈ 0.581 µM) | 0.63 (≈ 1.18 µM) | 0.31 (≈ 0.581 µM) | 6 (≈ 11.2 µM) |  |  |  |
| c1cc2cc(-c3ccc(-c4cc5ccc(C6=NCCN6)cc5o4)s3)[nH]c2cc1C1=NCCN1 | 2.8 (≈ 6.2 µM) | 0.27 (≈ 0.598 µM) | 66.7 (≈ 148 µM) | 60 (≈ 133 µM) | 0.16 (≈ 0.354 µM) | 0.94 (≈ 2.08 µM) | 1.56 (≈ 3.45 µM) | 1.09 (≈ 2.41 µM) | 182 (≈ 403 µM) |  |  |  |
| FC1CN=C(c2ccc3cc(-c4ccc(-c5cc6ccc(C7=NCC(F)CN7)cc6o5)cn4)[nH]c3c2)NC1 (configuration not stated) | 8.3 (≈ 16.3 µM) | 0.31 (≈ 0.607 µM) | 8.3 (≈ 16.3 µM) | 2.5 (≈ 4.9 µM) | 0.16 (≈ 0.313 µM) | 0.83 (≈ 1.63 µM) | 0.63 (≈ 1.23 µM) | 0.63 (≈ 1.23 µM) | 19.6 (≈ 38.4 µM) |  |  |  |
| c1cc2oc(-c3ccc(-c4cc5ccc(C6=NCCCN6)cc5[nH]4)cc3)cc2cc1C1=NCCCN1 | 0.63 (≈ 1.33 µM) | 0.39 (≈ 0.824 µM) | 2.5 (≈ 5.28 µM) | 1.25 (≈ 2.64 µM) | 0.08 (≈ 0.169 µM) | 0.31 (≈ 0.655 µM) | 0.08 (≈ 0.169 µM) | 0.08 (≈ 0.169 µM) | 8.5 (≈ 17.9 µM) | 2.5 (≈ 5.28 µM) |  |  |
| c1cc2cc(-c3ccc(-c4cc5ccc(C6=NCCCN6)cc5s4)cc3)[nH]c2cc1C1=NCCCN1 | 0.63 (≈ 1.29 µM) | 0.31 (≈ 0.633 µM) | 10 (≈ 20.4 µM) | 1.25 (≈ 2.55 µM) | 0.1 (≈ 0.204 µM) | 0.31 (≈ 0.633 µM) | 0.31 (≈ 0.633 µM) | 0.16 (≈ 0.327 µM) | 5.9 (≈ 12 µM) | 10 (≈ 20.4 µM) |  |  |
| c1cc2cc(-c3ccc(-c4cc5ccc(C6=NCCCN6)cc5o4)s3)[nH]c2cc1C1=NCCCN1 | 0.63 (≈ 1.31 µM) | 0.31 (≈ 0.646 µM) | 10 (≈ 20.9 µM) | 2.5 (≈ 5.21 µM) | 0.08 (≈ 0.167 µM) | 0.31 (≈ 0.646 µM) | 0.31 (≈ 0.646 µM) | 0.16 (≈ 0.334 µM) | 8.7 (≈ 18.1 µM) |  |  |  |
| Fc1cc(-c2cc3ccc(C4=NCCCN4)cc3[nH]2)ccc1-c1cc2ccc(C3=NCCCN3)cc2o1 | 0.63 (≈ 1.28 µM) | 0.31 (≈ 0.631 µM) | 2.5 (≈ 5.09 µM) | 0.63 (≈ 1.28 µM) | 0.08 (≈ 0.163 µM) | 0.16 (≈ 0.325 µM) | 0.16 (≈ 0.325 µM) | 0.08 (≈ 0.163 µM) | 14.3 (≈ 29.1 µM) |  |  |  |
| c1cc2cc(-c3ccc(-c4cnc(N5CCCC5)nc4)cc3)[nH]c2cc1C1=NCCCN1 | > 80 | 0.63 (≈ 1.49 µM) | > 80 | > 80 | 0.63 (≈ 1.49 µM) | 2.5 (≈ 5.92 µM) | 5 (≈ 11.8 µM) | 0.63 (≈ 1.49 µM) | 5.7 (≈ 13.5 µM) |  |  |  |
| c1cc2cc(-c3ccc(-c4cn5cc(C6=NCCN6)ccc5n4)cc3)[nH]c2cc1C1=NCCN1 | 40 (≈ 89.8 µM) | 0.63 (≈ 1.41 µM) | > 80 | 80 (≈ 180 µM) | 0.31 (≈ 0.696 µM) | 80 (≈ 180 µM) | 20 (≈ 44.9 µM) | 40 (≈ 89.8 µM) |  |  |  |  |
| CC1CNC(c2ccc3cc(-c4ccc(-c5ccc(N(C)C)cc5)cc4)[nH]c3c2)=N1 (configuration not stated) | > 80 | > 80 | > 80 | > 80 | 0.63 (≈ 1.6 µM) | 1.04 (≈ 2.64 µM) | 3.3 (≈ 8.36 µM) | 2.1 (≈ 5.32 µM) | ≤ 0.63 |  |  |  |
| NCCCNc1cc(-c2cc3ccc(C4=NCCCN4)cc3[nH]2)ccc1-c1cc2ccc(C3=NCCCN3)cc2o1 | 2.5 (≈ 4.58 µM) | 0.63 (≈ 1.15 µM) | 2.5 (≈ 4.58 µM) | 1.25 (≈ 2.29 µM) | 0.24 (≈ 0.44 µM) | 0.63 (≈ 1.15 µM) | 1.25 (≈ 2.29 µM) | 0.63 (≈ 1.15 µM) | 4.6 (≈ 8.43 µM) |  |  |  |
| CC1CNC(c2ccc3cc(-c4ccc(-c5cnc(N6CCOCC6)nc5)cc4)[nH]c3c2)=N1 (configuration not stated) | > 80 | 60 (≈ 137 µM) | > 80 | > 80 | 10 (≈ 22.8 µM) | > 80 | > 80 | 22.5 (≈ 51.3 µM) | 1.3 (≈ 2.96 µM) |  |  |  |
| Cc1c(-c2ccc(-c3cc4ccc(C5=NCCCN5)cc4o3)cc2)[nH]c2cc(C3=NCCCN3)ccc12 | 0.31 (≈ 0.636 µM) | 0.31 (≈ 0.636 µM) | 1.25 (≈ 2.56 µM) | 0.31 (≈ 0.636 µM) | 0.08 (≈ 0.164 µM) | 0.16 (≈ 0.328 µM) | 0.16 (≈ 0.328 µM) | 0.08 (≈ 0.164 µM) | 1.5 (≈ 3.08 µM) |  |  |  |
| CC1CNC(c2ccc3cc(-c4ccc(-c5cnc(N6CCCC6)nc5)cc4)[nH]c3c2)=N1 (configuration not stated) | > 80 | 40 (≈ 94.7 µM) | > 80 | > 80 | 40 (≈ 94.7 µM) | 40 (≈ 94.7 µM) | > 80 | 40 (≈ 94.7 µM) | 1.1 (≈ 2.6 µM) |  |  |  |
| CC1CNC(c2ccc3cc(-c4ccc(-c5cc6ccc(C7=NC(C)CN7)cc6o5)s4)[nH]c3c2)=N1 (configuration not stated) | 1.25 (≈ 2.61 µM) | 0.63 (≈ 1.31 µM) | 26.7 (≈ 55.7 µM) | 20 (≈ 41.7 µM) | 0.31 (≈ 0.646 µM) | 1.04 (≈ 2.17 µM) | 0.63 (≈ 1.31 µM) | 0.52 (≈ 1.08 µM) | 14.5 (≈ 30.2 µM) |  |  |  |
| FC1CN=C(c2ccc3cc(-c4ccc(-c5cc6ccc(C7=NCC(F)CN7)cc6o5)s4)[nH]c3c2)NC1 (configuration not stated) | 1.25 (≈ 2.42 µM) | 0.31 (≈ 0.601 µM) | 53.3 (≈ 103 µM) | 2.5 (≈ 4.85 µM) | 0.16 (≈ 0.31 µM) | 0.63 (≈ 1.22 µM) | 0.63 (≈ 1.22 µM) | 0.31 (≈ 0.601 µM) | 22.5 (≈ 43.6 µM) |  |  |  |
| OC1CN=C(c2ccc3cc(-c4ccc(-c5cc6ccc(C7=NCC(O)CN7)cc6o5)s4)[nH]c3c2)NC1 (configuration not stated) | 5 (≈ 9.77 µM) | 0.47 (≈ 0.919 µM) | 40 (≈ 78.2 µM) | 15 (≈ 29.3 µM) | 0.43 (≈ 0.84 µM) | 1.88 (≈ 3.67 µM) | 2.5 (≈ 4.89 µM) | 1.25 (≈ 2.44 µM) | 12.7 (≈ 24.8 µM) |  |  |  |
| CC1CNC(c2ccc3cc(-c4ccc(-c5cc6ccc(C7=NC(C)CN7)cc6o5)cc4)[nH]c3c2)=N1 (stereo in doubt) | 0.63 (≈ 1.33 µM) |  | 60 (≈ 127 µM) | 2.5 (≈ 5.28 µM) | 0.2 (≈ 0.422 µM) | 0.31 (≈ 0.655 µM) | 0.39 (≈ 0.824 µM) |  | 5.7 (≈ 12 µM) |  | 0.63 (≈ 1.33 µM) | 0.31 (≈ 0.655 µM) |
| CC1CN=C(c2ccc3cc(-c4ccc(-c5cc6ccc(C7=NCC(C)CN7)cc6o5)cn4)[nH]c3c2)NC1 (configuration not stated) | 1.88 (≈ 3.74 µM) | 0.27 (≈ 0.537 µM) | 5 (≈ 9.95 µM) | 2.5 (≈ 4.97 µM) | 0.08 (≈ 0.159 µM) | 0.31 (≈ 0.617 µM) | 0.63 (≈ 1.25 µM) | 0.63 (≈ 1.25 µM) | 2.2 (≈ 4.38 µM) |  |  |  |
| Cc1c(-c2ccc(-c3cc4ccc(C5=NCCCN5)cc4o3)cc2)[nH]c2cccc(C#N)c12 | 20 (≈ 46.5 µM) | 10 (≈ 23.2 µM) | 40 (≈ 92.9 µM) | 20 (≈ 46.5 µM) | 2.5 (≈ 5.81 µM) | 5 (≈ 11.6 µM) | 5 (≈ 11.6 µM) | 2.5 (≈ 5.81 µM) |  |  |  |  |
| c1cc2cc(-c3ccc(-c4cnc(N5CCOCC5)nc4)cc3)[nH]c2cc1C1=NCCCN1 | 35 (≈ 79.8 µM) | 0.63 (≈ 1.44 µM) | > 80 | 70 (≈ 160 µM) | 0.78 (≈ 1.78 µM) | 7.5 (≈ 17.1 µM) | 3.75 (≈ 8.55 µM) | 0.55 (≈ 1.25 µM) | 2 (≈ 4.56 µM) |  |  |  |
| OC1CN=C(c2ccc3cc(-c4ccc(-c5cc6ccc(C7=NCC(O)CN7)cc6o5)cn4)[nH]c3c2)NC1 (configuration not stated) | 80 (≈ 158 µM) | 0.63 (≈ 1.24 µM) | 25 (≈ 49.4 µM) | 8.8 (≈ 17.4 µM) | 3.75 (≈ 7.4 µM) | 2.5 (≈ 4.94 µM) | 5 (≈ 9.87 µM) | 1.09 (≈ 2.15 µM) | 16.7 (≈ 33 µM) |  |  |  |
| CN(C)c1ccc(-c2ccc(-c3cc4ccc(C5=NCCCN5)cc4[nH]3)cc2)cc1 | > 80 | > 80 | > 80 | > 80 | 0.63 (≈ 1.6 µM) | 1.09 (≈ 2.76 µM) | 3.1 (≈ 7.86 µM) | 0.47 (≈ 1.19 µM) | ≤ 0.63 |  |  |  |
